Results as given in patent publication US20100144820A1, “THERAPEUTIC HPPH DOSAGE FOR PDT” (Health Research, Inc., priority 2007, published 2010).
Where “and” joins values, the source holds several entries; their conditions need not be identical. Equal entries are not always repeated. Entries after “also recorded” stand apart in the source; their conditions may differ. Where two headings read alike, the source gives them in different places.

Columns and labels:
[1] = test system: skin; conditions: cited from earlier work
[2] = test system: bronchiogenic carcinoma; assay: Interluminal HPPH-PDT treatment of bronchiogenic carcinoma; format: in vivo, human; conditions: 0.1 mg/kg, 75-85 J/cm, 48 HRS post injection
Text: Dosages are in Joules per cm length of light delivering optical fiber.

[3] = test system: dogs; conditions: cited from earlier work
[4] = test system: high grade dysplasia-carcinoma in Barrett's Esophagus; assay: HPPH PDT of high grade dysplasia-carcinoma in Barrett's Esophagus; format: in vivo, human
Text: Use of HPPH Photodynamic Therapy for treatment of high grade dysplasia-carcinoma in Barrett's Esophagus. All energy was at 175 Joules/cm at 665±5 nm Light Energy 48 HRS Post Injection. This was a single treatment. Based on studies with PHOTOFRIN®, it is expected that three treatments, instead of just one, would result in about an 77% cure rate.

[5] = test system: tumor; conditions: mice, 0.05 to 0.3 mg/kg, 135 Joules/cm^2; cited from earlier work
[6] = test system: advanced obstructive endobronchial lung cancer; assay: Palliative treatment of advanced obstructive endobronchial lung cancer; format: in vivo, human; conditions: 0.1 mg/kg; for 2 Month FU response (patients) / Long Term FU outcome (patients): 48 HRS post injection
Description: Palliative Treatment of Advanced Obstructive Endobronchial Lung Cancer For relief in breathing only. Long term responses not expected due to most patients having wide spread disease outside of the area treated by HPPH in the Bronchus. All HPPH doses were 0.1 mg/kg with exposure of 100 to 140 Joules per cm of diffusion fiber at 665±5 nm Light Energy 48 HRS Post Injection.

[7] = test system: normal skin tissue; assay: Adverse effects for normal skin tissue exposed to 133 Joules/cm^2; format: in vivo, human; design: key: 1: faint erythema; 2: minimal erythema with sharp borders; 3: pronounced erythema without edema; 6: more than 10% of toxic dose causing peripheral neuropathy in animals; conditions: normal skin exposed to 133 Joules/cm^2
Description: Adverse effects for normal skin tissue when exposed to 133 Joules/cm^2 (approximately equivalent to 30 minutes of midday sun exposure in Northeastern United States): 1=faint erythema; 2=minimal erythema with sharp borders; 3=pronounced erythema without edema; 6- more than 10% of toxic dose causing peripheral neuropathy in animals.

[8] = test system: basal cell carcinoma; assay: Photodynamic therapy for treatment of basal cell carcinoma using HPPH; format: in vivo, human
Text: Table 1 gives results of a study of Photodynamic Therapy for the treatment of basal cell carcinoma using 2-(1-hexyloxyethyl)-2-devinyl pyropheophorbide-a (HPPH).
All dose data converted from actual drug dose in milligrams per square meter of surface area of patient assuming a 70 kg patient having a 2 m^2 surface area.

[9] = test system: tumor; conditions: of body weight; cited from earlier work
[10] = 0.075 mg/kg, 175 Joules/cm, 48 HRS post injection, single treatment

For `Oc1cccc(-c2c3nc(c(-c4cccc(O)c4)c4ccc([nH]4)c(-c4cccc(O)c4)c4nc(c(-c5cccc(O)c5)c5ccc2[nH]5)CC4)C=C3)c1` [FOSCAN], the Reported phototoxicity ([1]; 30 minute sun exposure a full week after injection) is listed as “serious erythema”.

In the case of `CCCCCCOC(C)c1c(C)c2cc3nc(c4c5[nH]c(cc6nc(cc1[nH]2)C(C)=C6CC)c(C)c5C(=O)C4)C(CCC(=O)O)C3C` (stereo not drawn) [HPPH, 2-(1-hexyloxy)-2-ethyl-derivative of pyropheophorbide-a], the “Systemic or phototoxic side effects” value [2] is given as “No observable systemic or phototoxic side effects”, the “Toxicity finding at lowest toxic dose” value ([3]; about 1.5 mg/kg in 0.1% Tween 80, test animals, toxicity said due to surfactant) is given as “neuropathy is common” and the Lowest toxic dose ([3]; in 0.1% Tween 80 (polysorbate 80) surfactant solution, dogs) is given as “about 1.5 mg/kg”. For the same compound, the “2 mo/FU response (patients)” value [4, 10] was 3 PR/2 CR, the “Long Term/FU response (patients)” value [4, 10] was 3 PR/2 CR and the “2 mo/FU response (patients)” value ([4]; 0.1 mg/kg, 175 Joules/cm, 48 HRS post injection, single treatment) was 4 PR/3 CR. The Expected cure rate ([4]; three treatments instead of one, expected based on studies with PHOTOFRIN) was about 77%, the “Long term tumor response” value [5] was “no or extremely little long term tumor response” and the “2 Month FU response (patients)” value ([6]; 100 J/cm) was 1 CR/2 PR. For the same compound, the “Long Term FU outcome (patients)” value ([6]; 100 J/cm) was 1 disease, the “Outcome upon long term follow up” value ([6]; 100 to 140 Joules per cm) was “one was disease free” and the “Systemic or phototoxic side effects” value ([6]; 100 to 140 Joules per cm) was “No observable systemic or phototoxic side effects”. For the same compound, the “2 Month FU response (patients)” value ([6]; 110 J/cm) was 3 PR, the “2 Month FU response (patients)” value ([6]; 130 J/cm) was 2 CR/1 PR and the “Long Term FU outcome (patients)” value ([6]; 130 J/cm) was 2 new. The “2 Month FU response (patients)” value ([6]; 140 J/cm) was 1 CR, the “Long Term FU outcome (patients)” value ([6]; 140 J/cm) was 1 new and the “Palliative response (improved ability to breathe)” value ([6]; all cases, 100 to 140 Joules per cm) was “at least partial palliative response”. For the same compound, the “Adverse Effects Noted” value ([7]; 0.05 mg/kg* (interpolated from 48 hr data)) was 1, the “Adverse Effects Noted” value ([7]; 0.07 mg/kg* (interpolated from 48 hr data)) was 1 and the “Adverse Effects Noted” value ([7]; 0.07 mg/kg) was 1. The “Adverse Effects Noted” value ([7]; 0.09 mg/kg) was 1, the “Adverse Effects Noted” value ([7]; 0.12 mg/kg* control (interpolated from 48 hr data)) was 3 and 2 and the “Adverse Effects Noted” value ([7]; 0.17 mg/kg control) was 3-6 and 2-6. For the same compound, the “Result of treatment of basal cell carcinoma” value (from here on “Result”) ([8]; 0.05 mg/kg*, 150 J/cm^2 @24 hr*, interpolated from 48 hr data) was “Complete”, the “Result” value ([8]; 0.05 mg/kg*, 200 J/cm^2 @24 hr*, interpolated from 48 hr data) was “Complete” and the “Result” value ([8]; 0.07 mg/kg*, 150 J/cm^2 @24 hr*, interpolated from 48 hr data) was “Complete”. The “Result” value ([8]; 0.07 mg/kg*, 200 J/cm^2 @24 hr*, interpolated from 48 hr data) was “Complete”, the “Result” value ([8]; 0.07 mg/kg, 50 J/cm^2 @24 hr) was “Fail and Partial and Complete” and the “Result” value ([8]; 0.07 mg/kg, 100 J/cm^2 @24 hr) was “Complete”. The “Result” value ([8]; 0.07 mg/kg, 150 J/cm^2 @48 hr) was “Complete”, the “Result” value ([8]; 0.07 mg/kg, 200 J/cm^2 @48 hr) was “Complete” and the “Result” value ([8]; 0.09 mg/kg, 50 J/cm^2 @24 hr) was “Partial; also recorded: Complete”. For the same compound, the “Result” value ([8]; 0.09 mg/kg, 100 J/cm^2 @24 hr) was “Complete; also recorded: Partial”, the “Result” value ([8]; 0.09 mg/kg, 150 J/cm^2 @48 hr) was “Complete” and the “Result” value ([8]; 0.09 mg/kg, 200 J/cm^2 @48 hr) was “Complete”.

In the case of porfimer sodium [PHOTOFRIN], the Reported phototoxicity ([1]; 2 mg/kg dose, exposure to only 9 Joules/cm^2 of activating light) is given as “very serious erythema and necrosis” and the “Lowest reasonable effective dose / required dose” value [9] is given as 2 mg/kg.
